Assay results reported in patent US20060276464A1, “Diarylsulfone sulfonamides and use thereof” (Wyeth, priority 2005, published 2006).
pEC50, pIC50: −log10 of the molar value. “And” between values parts separate entries of the source, which are not always exact repeats. Equal entries are not always repeated. Where two headings read alike, the source gives them in different places.

Tests used:
SFRP-1 [1] = target: T1, SFRP-1 (Homo sapiens, UniProt Q8N474); assay: Fluorescence polarization binding assay (competitive displacement of a probe compound from SFRP-1); settings: fluorescence anisotropy, 45 nM SFRP-1, 20 nM probe;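 note: test compound competes with a fluorescent probe held by SFRP-1, seen as a drop in probe anisotropy after incubation in darkness, with anisotropy as function of rising compound dose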
T1 sequence (Q8N474 32-314): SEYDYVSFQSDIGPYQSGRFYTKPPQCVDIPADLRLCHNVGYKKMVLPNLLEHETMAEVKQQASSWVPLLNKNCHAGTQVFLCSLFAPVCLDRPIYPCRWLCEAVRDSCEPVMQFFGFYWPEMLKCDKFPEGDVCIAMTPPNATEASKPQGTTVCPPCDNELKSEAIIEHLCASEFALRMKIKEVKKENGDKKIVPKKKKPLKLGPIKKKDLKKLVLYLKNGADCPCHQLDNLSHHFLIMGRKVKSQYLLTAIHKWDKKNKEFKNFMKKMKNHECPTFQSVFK

SFRP-1 [2] = target: T1, SFRP-1; assay: Cell-based assay for in vitro measurement of SFRP-1/SARP2 antagonist activity (U2OS cells co-transfected with 16x TCF-tk-Luciferase reporter, Wnt and hSFRP-1); settings: for fold induction at 15 µM / fold induction at 10 µM: U2OS; for fold induction at 10 µM: read-out: Fold Induction with SFRP-1, U2OS cells, single dose 10 μM, luciferase reporter, fold induction over SFRP-1 control;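 for all read-outs here: U2OS cells co-transfected with a TCF-tk luciferase reporter, a Wnt vector, hSFRP-1 or empty vector and CMV-βgal, luciferase luminescence read in cell lysates alongside βgal activity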
[3] = read-out: Fold Induction with SFRP-1, Conc 15 μM, single dose, luciferase reporter, fold induction over SFRP-1 control, cells with SFRP-1
[4] = read-out: Fold Induction without SFRP-1, Conc 15 μM, single dose, luciferase reporter, cells without SFRP-1 (specificity control)
[5] = read-out: Fold Induction with SFRP-1, Conc 15 μM, with SFRP-1, fold induction over SFRP-1 control, single dose
[6] = read-out: Fold Induction without SFRP-1, Conc 15 μM, without SFRP-1, single dose

Row | pIC50 (SFRP-1 [1]) | fold induction at 15 µM (SFRP-1 [2]; [3]) | fold induction at 15 µM (SFRP-1 [2]; [4]) | fold induction at 15 µM (SFRP-1 [2]; [5]) | fold induction at 15 µM (SFRP-1 [2]; [6]) | pEC50 (SFRP-1 [2]) | fold induction at 10 µM (SFRP-1 [2]) | Compound
1 | 6.40 | 3 | 1.2 | – | – | – | – | CC(C)c1ccc(S(=O)(=O)c2ccc(NCCC#N)cc2)cc1S(=O)(=O)NCC1CCOCC1 [Example 536, 5-({4-[(2-cyanoethyl)amino]phenyl}sulfonyl)-2-isopropyl-N-(tetrahydro-2H-pyran-4-ylmethyl)benzenesulfonamide]
2 | 5.59 | – | – | 2.5 | 1.1 | – | – | C/C(=N\O)c1ccc(S(=O)(=O)c2ccc(C)c(S(=O)(=O)NC3CCOCC3)c2)cc1 [Example 402, 5-({4-[(1E)-N-hydroxyethanimidoyl]phenyl}sulfonyl)-2-methyl-N-(tetrahydro-2H-pyran-4-yl)benzenesulfonamide]
3 | 6.30 | – | – | – | – | 5.87 | – | COc1ccc2c(c1)C(O)C(NS(=O)(=O)c1cc(S(=O)(=O)c3ccccc3)ccc1C(F)(F)F)C2 (centres unmarked) [Example 1044, N-(1-hydroxy-6-methoxy-2,3-dihydro-1H-inden-2-yl)-5-(phenylsulfonyl)-2-(trifluoromethyl)benzenesulfonamide]
4 | 5.96 | – | – | – | – | – | 3.1 | O=S(=O)(NCC(O)c1ccccn1)c1cc(S(=O)(=O)c2ccccc2)ccc1C(F)(F)F (centres unmarked) [Example 757, N-(2-hydroxy-2-pyridin-2-ylethyl)-5-(phenylsulfonyl)-2-(trifluoromethyl)benzenesulfonamide]
5 | 6.82 | – | – | – | – | 5.88 | 2.7 | O=C(O)CCC(=O)N1CCC(NS(=O)(=O)c2cc(S(=O)(=O)c3ccccc3)ccc2C(F)(F)F)C1 (centres unmarked) [Example 886, 4-oxo-4-[3-({[5-(phenylsulfonyl)-2-(trifluoromethyl)phenyl]sulfonyl}amino)pyrrolidin-1-yl]butanoic acid]
6 | 6.40 | – | – | 2.4 | 1 | – | – | CCNc1ccc(S(=O)(=O)c2ccc(C)c(S(=O)(=O)NCCCn3ccnc3)c2)cc1 [Example 311, 5-{[4-(ethylamino)phenyl]sulfonyl}-N-[3-(1H-imidazol-1-yl)propyl]-2-methylbenzenesulfonamide]
7 | 7.22 | – | – | – | – | 6.01 | 1.3 | O=S(=O)(NC[C@@H](O)c1ccccc1)c1cc(S(=O)(=O)c2ccccc2)ccc1C(F)(F)F [Example 774, N-[(2S)-2-hydroxy-2-phenylethyl]-5-(phenylsulfonyl)-2-(trifluoromethyl)benzenesulfonamide]
8 | 6.22 | 2.1 | 1.1 | – | – | – | – | CC(C)c1ccc(S(=O)(=O)c2ccc(F)cc2)cc1S(=O)(=O)NC1CCN(C(=O)N(C)C)CC1 [Example 573, 4-[({5-[(4-fluorophenyl)sulfonyl]-2-isopropylphenyl}sulfonyl)amino]-N,N-dimethylpiperidine-1-carboxamide]
9 | 6.72 | – | – | – | – | 6.68 | 3.8 | Nc1ccc(CNS(=O)(=O)c2cc(S(=O)(=O)c3ccccc3)ccc2C(F)(F)F)cc1 [Example 942, N-(4-aminobenzyl)-5-(phenylsulfonyl)-2-(trifluoromethyl)benzenesulfonamide]
10 | 5.22 | – | – | – | – | 5.29 | 2.4 | CN(CCCNS(=O)(=O)c1cc(S(=O)(=O)c2ccccc2)ccc1C(F)(F)F)C(=O)NC1CCN(C(=O)OC(C)(C)C)CC1 [Example 955]
11 | 5.40 | – | – | – | – | 5.89 | 2.9 | CC(C)(C)OC(=O)N1CCC(CCNS(=O)(=O)c2cc(S(=O)(=O)c3ccccc3)ccc2C(F)(F)F)CC1 [Example 931, tert-butyl 4-[2-({[5-(phenylsulfonyl)-2-(trifluoromethyl)phenyl]sulfonyl}amino)ethyl]piperidine-1-carboxylate]
12 | 5.82 and 5.59 | 2.2 | 1.2 | – | – | – | – | CC(C)c1ccc(S(=O)(=O)c2ccc(N(C)C)cc2)cc1S(=O)(=O)NCCC1CCOCC1 [Example 546, 5-{[4-(dimethylamino)phenyl]sulfonyl}-2-isopropyl-N-[2-(tetrahydro-2H-pyran-4-yl)ethyl]benzenesulfonamide]
13 | 7.40 | – | – | – | – | 6.14 | – | C[S+]([O-])CCC(=O)N1CCC(NS(=O)(=O)c2cc(S(=O)(=O)c3ccccc3)ccc2C(F)(F)F)CC1 (centres unmarked) [Example 1054, N-{1-[3-(methylsulfinyl)propanoyl]piperidin-4-yl}-5-(phenylsulfonyl)-2-(trifluoromethyl)benzenesulfonamide]
14 | 6.30 | – | – | – | – | 5.87 | 2.7 | CN(CCNS(=O)(=O)c1cc(S(=O)(=O)c2ccccc2)ccc1C(F)(F)F)C(=O)CCC(=O)O [Example 897, 4-{methyl[2-({[5-(phenylsulfonyl)-2-(trifluoromethyl)phenyl]sulfonyl}amino)ethyl]amino}-4-oxobutanoic acid]
15 | 5.30 | – | – | – | – | – | 1.4 | CC(C)c1ccc(S(=O)(=O)c2ccccc2)cc1S(=O)(=O)NC1CCCC(C(=O)O)C1 (centres unmarked) [Example 952, 3-({[2-isopropyl-5-(phenylsulfonyl)phenyl]sulfonyl}amino)cyclohexanecarboxylic acid]
16 | 5.92 | – | – | – | – | 5.51 | 3.7 | CC(CO)NS(=O)(=O)c1cc(S(=O)(=O)c2ccccc2)ccc1C(F)(F)F (centres unmarked) [Example 683, N-(2-hydroxy-1-methylethyl)-5-(phenylsulfonyl)-2-(trifluoromethyl)benzenesulfonamide]
17 | 5.96 | – | – | – | – | 5.37 | 3.4 | O=S(=O)(NCCO)c1cc(S(=O)(=O)c2ccccc2)ccc1C(F)(F)F [Example 681, N-(2-hydroxyethyl)-5-(phenylsulfonyl)-2-(trifluoromethyl)benzenesulfonamide]
18 | 6.15 | – | – | – | – | – | 3.5 | O=C(c1ccc(C(F)(F)F)cc1F)N1CCC(NS(=O)(=O)c2cc(S(=O)(=O)c3ccccc3)ccc2C(F)(F)F)CC1 [Example 710, N-{1-[2-fluoro-4-(trifluoromethyl)benzoyl]piperidin-4-yl}-5-(phenylsulfonyl)-2-(trifluoromethyl)benzenesulfonamide]
19 | 6.52 | – | – | – | – | 6.05 | 4.2 | O=S(=O)(NCC1CCNCC1)c1cc(S(=O)(=O)c2ccccc2)ccc1C(F)(F)F [Example 899, 5-(phenylsulfonyl)-N-(piperidin-4-ylmethyl)-2-(trifluoromethyl)benzenesulfonamide]
20 | 6.70 | – | – | – | – | 6.36 | 2.1 | CC(=O)Nc1ccc(C(=O)N2CCC(NS(=O)(=O)c3cc(S(=O)(=O)c4ccccc4)ccc3C(F)(F)F)CC2)cc1 [Example 719, N-(4-{[4-({[5-(phenylsulfonyl)-2-(trifluoromethyl)phenyl]sulfonyl}amino)piperidin-1-yl]carbonyl}phenyl)acetamide]
21 | 5.85 | 2.7 | 1.1 | – | – | – | – | Cc1c(Cl)cccc1S(=O)(=O)c1ccc(C(C)C)c(S(=O)(=O)NC2CCOCC2)c1 [Example 542, 5-[(3-chloro-2-methylphenyl)sulfonyl]-2-isopropyl-N-(tetrahydro-2H-pyran-4-yl)benzenesulfonamide]
22 | 5.89 and 5.77 | 2.4 | 1 | – | – | – | – | Cc1ccc(S(=O)(=O)c2ccccc2)cc1S(=O)(=O)NC1CCN(C(=O)c2cccs2)CC1 [Example 497, 2-methyl-5-(phenylsulfonyl)-N-[1-(2-thienylcarbonyl)piperidin-4-yl]benzenesulfonamide]
23 | 6.40 | – | – | – | – | 5.97 | 3.5 | CCOC(=O)NC(=S)N1CCC(NS(=O)(=O)c2cc(S(=O)(=O)c3ccc(F)cc3)ccc2C(C)C)CC1 [Example 693, ethyl({4-[({5-[(4-fluorophenyl)sulfonyl]-2-isopropylphenyl}sulfonyl)amino]piperidin-1-yl}carbonothioyl)carbamate]
24 | 6.10 | – | – | – | – | 5.94 | – | CN(CCNS(=O)(=O)c1cc(S(=O)(=O)c2ccccc2)ccc1C(F)(F)F)C(=O)c1ccc(CBr)cc1 [Example 983, 4-(bromomethyl)-N-methyl-N-[2-({[5-(phenylsulfonyl)-2-(trifluoromethyl)phenyl]sulfonyl}amino)ethyl]benzamide]
25 | 6.40 | 3.7 | 1.3 | – | – | – | – | CC(C)c1ccc(S(=O)(=O)c2ccc3c(ccn3C)c2)cc1S(=O)(=O)NCCc1ccccn1 [Example 597, 2-isopropyl-5-[(1-methyl-1H-indol-5-yl)sulfonyl]-N-(2-pyridin-2-ylethyl)benzenesulfonamide]
26 | 6.52 | – | – | 4 | 1.1 | – | – | CC[C@H](C)C(CO)Nc1ccc(S(=O)(=O)c2ccc(C(C)C)c(S(=O)(=O)NCCn3ccnc3)c2)cc1 (stereo partly drawn) [Example 453, 5-[(4-{[(2S)-1-(hydroxymethyl)-2-methylbutyl]amino}phenyl)sulfonyl]-N-[2-(1H-imidazol-1-yl)ethyl]-2-isopropylbenzenesulfonamide]
27 | 5.52 | – | – | – | – | – | 3.8 | O=S(=O)(N[C@@H]1CCCNC1)c1cc(S(=O)(=O)c2ccccc2)ccc1C(F)(F)F [Example 791, 5-(phenylsulfonyl)-N-[(3R)-piperidin-3-yl]-2-(trifluoromethyl)benzenesulfonamide]
